Laboratory results from PubChem BioAssay AID1919004 (Molecular Pharmacology Branch, DTP, NCI, 2023).

Tested on: 883617-216-R-J1-PDC complex spheroids, growth, % test/control
Experiment: Anticancer human tumor 883617-216-R-J1-PDC patient-derived bladder carcinoma cell line growth inhibition [AhR]
Conditions: for IC50: curve of first compound; for viability, T/C: stronger effect = lower value
Text: Multicellular complex tumor spheroid response to aryl hydrocarbon receptor antagonists in combination with a variety of drugs and investigational agents in selected tumor cell lines
The current study was undertaken to assess response to aryl hydrocarbon receptor antagonists in combination with standard-of-care drugs and investigational agents in solid tumor complex spheroid models. Complex spheroids include a stromal component modeled by human endothelial cells (HUVEC) and fibroblasts modeled by human mesenchymal stem cells (MSCs). The concentration ranges selected for each drug and investigational agent were based upon clinically achievable concentrations if the clinical Cmax of the agent was known.
Compounds. The drugs and investigational agents: BAY 2416964 (NSC825713), GNF351 (NSC835774), CH-223191 (NSC835775), CPI-455 (NSC825282), aza-TdCyd (NSC777586), decitabine (NSC127716), belinostat (NSC758774), entinostat (NSC756642), pevonedistat (NSC761192), tazemetostat (NSC777109), talazoparib (NSC765396), olaparib (NSC753686), selinexor (NSC780203), nedisertib (M3814, NSC802822), bortezomib (NSC756655), venetoclax (NSC766270), doxorubicin (NSC123127), elimusertib (BAY189344, NSC800525), ceralasertib (AZD6738, NSC777638), TAK-243 (NSC785004), alisertib (NSC759677), etoposide (NSC141540), topotecan (NSC609699), eribulin (NSC707389), gemcitabine (NSC613327), carboplatin (NSC241240), cisplatin (NSC119875), and SN-38 (NSC673596) were obtained from the National Cancer Institute (NCI) Developmental Therapeutics Program Chemical Repository (32). The FDA-approved anticancer drug set is available from the Developmental Therapeutics Program at https://dtp.cancer.gov/organization/dscb/obtaining/available plates.htm. […] The stock solutions were prepared in dimethyl sulfoxide (DMSO, Sigma-Aldrich, St. Louis, MO, cat. D2650), except for the platinum compounds which were prepared in saline (Quality Biological, Gaithersburg, MD, cat. 114-055-101), at 800-fold the tested concentration and stored at -70 degrees C prior to their use. All drugs and investigational agents were tested over a range starting from a high concentration at or near the clinical Cmax and decreasing in half-log increments. If the clinical Cmax for an agent had not been determined, the highest concentration tested was 10 microM (Table 1).
Cell Culture. All cells were maintained in an incubator at 37 degrees C and 5% CO2 with 95% humidity. The PDC lines were cultured according to standard operating procedures established by the NCI PDMR (https://pdmr.cancer.gov). Briefly, all PDCs were thawed and cultured in Matrigel-coated flasks prepared with a working solution of 1X Ham's F-12 nutrient mix, without supplementation (Invitrogen, Waltham, MA, cat. 11765054), 100 U/mL penicillin-streptomycin (Invitrogen, cat. 15140122), and 2.5% Matrigel (Corning Inc., Corning, NY, cat. 354248) for the first three passages. All PDCs were cultured in complete DMEM/F-12 media containing advanced DMEM/F-12 (Invitrogen, cat. 12634028), 4.9% defined fetal bovine serum, heat inactivated (HyClone Laboratories Inc., Logan, UT, cat. SH30070.03HI), 389 ng/mL hydrocortisone (Sigma-Aldrich, cat. H4001), 9.7 ng/mL human EGF recombinant protein (Invitrogen, cat. PHG0313), 23.4 microg/mL adenine (Sigma-Aldrich, cat. A2786), 97.3 U/mL penicillin-streptomycin (Invitrogen, cat. 15140122), 1.9 mM L-glutamine (Invitrogen, cat. 25030081), and 9.7 microM Y-27632 dihydrochloride (Tocris Bioscience, Bristol, United Kingdom, cat. 1254). The PDCs were cultured in complete DMEM/F12 media without 10 microM Y-27632 dihydrochloride for at least two passages prior to the screen. The established cell lines NCI-H1341 and […] were cultured in DMEM/F-12, HEPES (Invitrogen, cat. 11330032), 5% defined fetal bovine serum (HyClone Laboratories Inc., cat. SH30070.03), ITS premix universal culture supplement [insulin (5 microg/mL), transferrin (5 microg/mL), and selenious acid (5 ng/mL)] […]

[1] = second compound 0.1 µM, first compound 0.0316 µM
[2] = second compound 0.1 µM, first compound 0.1 µM
[3] = second compound 0.1 µM, first compound 0.316 µM
[4] = second compound 0.1 µM, first compound 1 µM
[5] = second compound 0.1 µM, first compound 3.16 µM
[6] = second compound 0.1 µM, first compound 10 µM
[7] = second compound 0.316 µM, first compound 0.0316 µM
[8] = second compound 0.316 µM, first compound 0.1 µM
[9] = second compound 0.316 µM, first compound 0.316 µM
[10] = second compound 0.316 µM, first compound 1 µM
[11] = second compound 0.316 µM, first compound 3.16 µM
[12] = second compound 0.316 µM, first compound 10 µM
[13] = second compound 1 µM, first compound 0.0316 µM
[14] = second compound 1 µM, first compound 0.1 µM
[15] = second compound 1 µM, first compound 0.316 µM
[16] = second compound 1 µM, first compound 1 µM
[17] = second compound 1 µM, first compound 3.16 µM
[18] = second compound 1 µM, first compound 10 µM
[19] = second compound 3.16 µM, first compound 0.0316 µM
[20] = second compound 3.16 µM, first compound 0.1 µM
[21] = second compound 3.16 µM, first compound 0.316 µM
[22] = second compound 3.16 µM, first compound 1 µM
[23] = second compound 3.16 µM, first compound 3.16 µM
[24] = second compound 3.16 µM, first compound 10 µM
[25] = second compound 10 µM, first compound 0.0316 µM
[26] = second compound 10 µM, first compound 0.1 µM
[27] = second compound 10 µM, first compound 0.316 µM
[28] = second compound 10 µM, first compound 1 µM
[29] = second compound 10 µM, first compound 3.16 µM
[30] = second compound 10 µM, first compound 10 µM
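Note: exposure lasted 7 days after dosing on day 3 of spheroid growth.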

SMILES | IC50 (second compound 0.1 µM) [nM] | IC50 (second compound 0.316 µM) [nM] | IC50 (second compound 1 µM) [nM] | IC50 (second compound 3.16 µM) [nM] | IC50 (second compound 10 µM) [nM] | viability, T/C [1] [%] | viability, T/C [2] [%] | viability, T/C [3] [%] | viability, T/C [4] [%] | viability, T/C [5] [%] | viability, T/C [6] [%] | viability, T/C [7] [%] | viability, T/C [8] [%] | viability, T/C [9] [%] | viability, T/C [13] [%] | viability, T/C [14] [%] | viability, T/C [19] [%] | viability, T/C [20] [%] | viability, T/C [25] [%] | viability, T/C [26] [%] | also measured
CC1(C)CCC(CN2CCN(c3ccc(C(=O)NS(=O)(=O)c4ccc(NCC5CCOCC5)c([N+](=O)[O-])c4)c(Oc4cnc5[nH]ccc5c4)c3)CC2)=C(c2ccc(Cl)cc2)C1 + CC(CO)NC(=O)c1cc(-c2ccc(Cl)cc2)nn(-c2cnn(C)c2)c1=O | > 10000 | > 10000 | > 10000 | > 10000 | > 10000 | 77 | 90.8 | 136 | 95.4 | 90.3 | 59.4 | 83.2 | 93.9 | 102 | 90.6 | 114 | 79.5 | 132 | 91.9 | 143 | viability, T/C [10]: 88.2%; viability, T/C [11]: 96.9%; viability, T/C [12]: 68.5%; viability, T/C [15]: 152%; viability, T/C [16]: 71.4%; viability, T/C [17]: 82.4%; viability, T/C [18]: 78.2%; viability, T/C [21]: 97.1%; viability, T/C [22]: 115%; viability, T/C [23]: 83.4%; viability, T/C [24]: 68.7%; viability, T/C [27]: 171%; viability, T/C [28]: 83.9%; viability, T/C [29]: 122%; viability, T/C [30]: 103%
COc1cc(Nc2ncc3c(n2)-c2ccc(Cl)cc2C(c2c(F)cccc2OC)=NC3)ccc1C(=O)O + CC(CO)NC(=O)c1cc(-c2ccc(Cl)cc2)nn(-c2cnn(C)c2)c1=O | > 10000 | > 10000 | > 10000 | > 10000 | > 10000 | 140 | 128 | 77.8 | 97 | 86.6 | 120 | 128 | 85 | 80.5 | 124 | 123 | 77 | 103 | 130 | 71 | viability, T/C [10]: 87%; viability, T/C [11]: 60.8%; viability, T/C [12]: 95.6%; viability, T/C [15]: 93.3%; viability, T/C [16]: 48.3%; viability, T/C [17]: 103%; viability, T/C [18]: 101%; viability, T/C [21]: 135%; viability, T/C [22]: 105%; viability, T/C [23]: 70.9%; viability, T/C [24]: 70.6%; viability, T/C [27]: 121%; viability, T/C [28]: 125%; viability, T/C [29]: 71.7%; viability, T/C [30]: 88.4%
Cn1ncnc1C1c2n[nH]c(=O)c3cc(F)cc(c23)NC1c1ccc(F)cc1 (stereo not given) + CC(CO)NC(=O)c1cc(-c2ccc(Cl)cc2)nn(-c2cnn(C)c2)c1=O | > 100 | > 100 | > 100 | > 100 | > 100 | 55.6 | 93 |  |  |  |  | 86 | 98.7 |  | 87.6 | 89.9 | 50.2 | 69.2 | 55.7 | 80.9 | viability, T/C (second compound 0.1 µM, first compound 0.000316 µM): 72.7%; viability, T/C (second compound 0.1 µM, first compound 0.001 µM): 96.6%; viability, T/C (second compound 0.1 µM, first compound 0.00316 µM): 77.3%; viability, T/C (second compound 0.1 µM, first compound 0.01 µM): 57.7%; viability, T/C (second compound 0.316 µM, first compound 0.000316 µM): 90.4%; viability, T/C (second compound 0.316 µM, first compound 0.001 µM): 92.8%; viability, T/C (second compound 0.316 µM, first compound 0.00316 µM): 78.6%; viability, T/C (second compound 0.316 µM, first compound 0.01 µM): 75.8%; viability, T/C (second compound 1 µM, first compound 0.000316 µM): 59.7%; viability, T/C (second compound 1 µM, first compound 0.001 µM): 92.4%; viability, T/C (second compound 1 µM, first compound 0.00316 µM): 75.1%; viability, T/C (second compound 1 µM, first compound 0.01 µM): 59.8%; viability, T/C (second compound 3.16 µM, first compound 0.000316 µM): 77.3%; viability, T/C (second compound 3.16 µM, first compound 0.001 µM): 51%; viability, T/C (second compound 3.16 µM, first compound 0.00316 µM): 123%; viability, T/C (second compound 3.16 µM, first compound 0.01 µM): 82.8%; viability, T/C (second compound 10 µM, first compound 0.000316 µM): 78.6%; viability, T/C (second compound 10 µM, first compound 0.001 µM): 68.8%; viability, T/C (second compound 10 µM, first compound 0.00316 µM): 70.6%; viability, T/C (second compound 10 µM, first compound 0.01 µM): 72%
NS(=O)(=O)OCC1CC(n2ccc3c(NC4CCc5ccccc54)ncnc32)CC1O (stereo not given) + CC(CO)NC(=O)c1cc(-c2ccc(Cl)cc2)nn(-c2cnn(C)c2)c1=O | 788 | 1500 | 1910 | 10000 | 1170 | 96.4 | 90.6 | 87.1 | 40.6 | 21 | 27.2 | 55 | 94 | 63.4 | 64.6 | 55.6 | 75.8 | 108 | 72.3 | 109 | viability, T/C [10]: 61.5%; viability, T/C [11]: 28.2%; viability, T/C [12]: 29.2%; viability, T/C [15]: 109%; viability, T/C [16]: 67.6%; viability, T/C [17]: 30.7%; viability, T/C [18]: 42%; viability, T/C [21]: 55.6%; viability, T/C [22]: 65.9%; viability, T/C [23]: 27%; viability, T/C [24]: 72.7%; viability, T/C [27]: 80.1%; viability, T/C [28]: 51.1%; viability, T/C [29]: 32.4%; viability, T/C [30]: 16.4%
